Assay results: ChEMBL document CHEMBL1201862, “PubChem BioAssay data set” (2004)
Calls of active or inactive are those of the source.

Columns and labels:
[1] = P. falciparum Dd2 growth inhibitors, dose response, SYBR Green, cherry-picked samples (AID 1159567); type: functional, cell-based
H4 = experiment: Luminescence Cell-Based Dose Response HTS to Identify Activators of 5'UTR Stem-Loop Driven Prion Protein mRNA Translation in H4 Neuroglioblastoma Cells. [Related pubchem assays: 1829 (Project Summary), 1814 (Primary HTS)]; type: functional; settings: Homo sapiens
[2] = Luminescence Cell-Based Dose Confirmation HTS to Identify Activators of 5'UTR Stem-Loop Driven Alpha-Synuclein mRNA Translation in H4 Neuroglioblastoma Cells. [Related pubchem assays: 1829 (Project Summary), 1814 (Primary HTS)]; type: functional
[3] = Luminescence Cell-Based Dose Response HTS to Identify Activators of Luciferase Translation or Activity in H4 […] Cells. [Related pubchem assays: 1829 (Project Summary), 1814 (Primary HTS)]; type: functional
[4] = CRF-BP/CRF-R2 complex antagonists, dose response, cell-based, uHTS hits, 384-well (AID 651639); type: functional, Homo sapiens; settings: read-out: IC50_Mean
[5] = target: T1, Corticotropin-releasing factor receptor 2/Corticotropin-releasing factor-binding protein (Homo sapiens, UniProt P24387+Q13324); experiment: activators of CRF receptor 2 with binding protein – uHTS hits, confirmation (AID 602473); type: functional; settings: read-out: EC50_Mean
T1 sequence (Q13324 whole entry): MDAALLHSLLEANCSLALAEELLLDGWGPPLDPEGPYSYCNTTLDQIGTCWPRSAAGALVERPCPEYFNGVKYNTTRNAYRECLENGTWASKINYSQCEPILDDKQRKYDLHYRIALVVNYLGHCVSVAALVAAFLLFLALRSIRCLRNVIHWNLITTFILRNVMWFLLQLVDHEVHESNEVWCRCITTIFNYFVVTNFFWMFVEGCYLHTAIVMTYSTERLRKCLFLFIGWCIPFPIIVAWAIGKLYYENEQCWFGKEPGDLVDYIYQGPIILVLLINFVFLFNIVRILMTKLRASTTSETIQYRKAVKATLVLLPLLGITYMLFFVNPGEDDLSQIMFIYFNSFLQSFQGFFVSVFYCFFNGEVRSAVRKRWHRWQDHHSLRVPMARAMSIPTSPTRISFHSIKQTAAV
T1 sequence (P24387 whole entry): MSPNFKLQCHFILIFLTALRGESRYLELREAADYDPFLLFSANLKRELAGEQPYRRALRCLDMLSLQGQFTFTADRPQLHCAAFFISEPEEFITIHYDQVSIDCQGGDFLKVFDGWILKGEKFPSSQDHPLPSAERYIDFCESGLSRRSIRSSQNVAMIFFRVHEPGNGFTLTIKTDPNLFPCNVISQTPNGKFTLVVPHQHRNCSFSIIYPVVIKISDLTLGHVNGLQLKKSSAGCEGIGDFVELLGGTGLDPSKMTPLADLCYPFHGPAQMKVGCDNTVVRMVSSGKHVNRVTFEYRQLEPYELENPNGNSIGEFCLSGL

[6] = target: T1, Corticotropin-releasing factor receptor 2/Corticotropin-releasing factor-binding protein; experiment: Dose Response confirmation of uHTS hits for small molecule antagonists of the CRF-binding protein and CRF-R2 receptor complex.; type: functional; settings: read-out: IC50_Mean
[7] = inhibitors of firefly luciferase expression or activity, dose response, H4 neuroglioma cells, luminescence (AID 1990); type: functional, cell-based
[8] = inhibitors of SNCA 5'UTR-driven reporter translation, confirmation, H4 neuroglioma cells, luminescence (AID 1988); type: functional, cell-based
[9] = target: T2, Microphthalmia-associated transcription factor (Homo sapiens, UniProt O75030); experiment: TRPM1 promoter luciferase signal decrease, dose response, MITF inhibitor project, cell-based, SK-MEL-5, cherry-picked, set 3 (AID 493073); type: functional
T2 sequence (O75030 whole entry): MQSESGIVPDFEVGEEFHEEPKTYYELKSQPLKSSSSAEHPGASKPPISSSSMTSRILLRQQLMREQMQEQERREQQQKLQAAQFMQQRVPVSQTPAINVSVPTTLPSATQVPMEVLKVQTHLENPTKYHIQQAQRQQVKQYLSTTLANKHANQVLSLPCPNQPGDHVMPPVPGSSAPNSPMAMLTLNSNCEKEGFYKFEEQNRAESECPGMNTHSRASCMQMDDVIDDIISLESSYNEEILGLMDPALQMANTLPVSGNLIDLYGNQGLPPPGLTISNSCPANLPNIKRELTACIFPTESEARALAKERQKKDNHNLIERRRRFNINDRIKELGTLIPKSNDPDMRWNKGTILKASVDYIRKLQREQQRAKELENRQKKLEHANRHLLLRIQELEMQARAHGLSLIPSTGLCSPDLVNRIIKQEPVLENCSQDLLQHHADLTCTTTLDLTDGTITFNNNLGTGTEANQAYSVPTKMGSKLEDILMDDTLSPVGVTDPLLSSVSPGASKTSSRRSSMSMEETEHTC

[10] = Luminescence Cell-Based Dose Response HTS to Identify Inhibitors of 5'UTR Stem-Loop Driven Prion Protein mRNA Translation in H4 Neuroglioblastoma Cells. [Related pubchem assays: 1827 (Project Summary), 1813 (Primary HTS)]; type: functional
Streptococcus = experiment: Group A Streptococcus viability loss, dose response, counter-screen for streptokinase expression inhibitor project, luminescence, BacTiterGlo (AID 1915); type: functional, organism-based;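 note: potency for reduction of bacterial viability or growth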
[11] = system: Streptococcus sp. 'group A'; experiment: growth inhibition of control SK(-) GAS strain, dose response, counter-screen for streptokinase expression inhibitor project, luminescence, kanamycin, BacTiterGlo, confirmation (AID 1900); type: functional, organism-based
[12] = target: Induced myeloid leukemia cell differentiation protein Mcl-1 (Homo sapiens, UniProt Q07820); type: functional
[13] = growth suppression of beta-catenin-knockout colon cells, dose response, cell-based, HCT116, human colon tumor (AID 1045); type: functional;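 note: HCT116 colon tumor cells with beta catenin knocked out; cells exposed to compound for 60 hours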
[14] = growth suppression of PTEN-null colon cells, dose response, cell-based, HCT116 PTEN knockout (AID 1047); type: functional;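 note: HCT116 colon tumor cells with PTEN knocked out; cells exposed to compound for 60 hours before readout; potency for loss of cell viability measured by luminescence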
[15] = inhibitors of clade B AD8 Env fusion, dose response, cell-based, cherry-pick (AID 652062); type: functional;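 note: luciferase signal from cell-cell fusion driven by HIV-1 clade B AD8 Env; potency is for inhibitors of fusion seen as a drop in luminescence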
[16] = inhibitors of HIV Env-driven cell fusion, dose response, cherry-pick (AID 652057); type: functional, cell-based

Chain of Induced myeloid leukemia cell differentiation protein Mcl-1 (Q07820 whole entry): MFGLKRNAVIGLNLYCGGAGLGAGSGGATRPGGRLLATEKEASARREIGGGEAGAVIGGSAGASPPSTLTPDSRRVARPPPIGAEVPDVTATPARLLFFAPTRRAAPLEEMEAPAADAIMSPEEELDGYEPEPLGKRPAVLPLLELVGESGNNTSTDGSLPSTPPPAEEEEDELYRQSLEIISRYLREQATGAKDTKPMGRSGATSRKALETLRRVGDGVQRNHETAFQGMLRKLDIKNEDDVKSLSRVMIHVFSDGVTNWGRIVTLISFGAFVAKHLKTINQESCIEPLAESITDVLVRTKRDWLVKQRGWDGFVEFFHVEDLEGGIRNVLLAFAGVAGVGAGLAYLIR

CS(=O)(=O)N1[C@H](C#N)[C@H](c2ccccc2-c2ccc(F)cc2)[C@H]1CO
AC50 [1]: 16.6 µM (active)

C[C@@H]1CC=C[C@H]2[C@H]1C(=O)N(Cc1ccccc1)[C@H]2c1ccc(-c2cc3ccccc3s2)cc1F
EC50 (H4): 0.11 µM (active)
EC50 [2]: 0.251 µM (active)
EC50 [3]: 61.8 µM (active)

CCN(CC)C(=O)[C@H]1CC(CC(=O)NC/C=C(\C)CCC=C(C)C)C(=O)N2CCc3c([nH]c4ccc(OC)cc34)[C@]12C (stereo partly drawn)
IC50 [4]: 1.33 µM (active)
EC50 [5]: > 53 µM (inactive)
IC50 [6]: 3.54 µM (active)

C=CC[n+]1c(-c2ccc(C)cc2)csc1Nc1ccc(NC(C)=O)cc1
EC50 [7]: 2.34 µM (active)
EC50 [8]: 0.246 µM (active)
AC50 [9]: 1.57 µM (active)
EC50 [10]: 0.238 µM (active)

NC(=NOC(=O)Nc1ccccc1)c1ncc([N+](=O)[O-])s1
EC50 (H4): > 120 µM (not active)
EC50 [2]: > 120 µM (not active)
EC50 [3]: > 120 µM (not active)

N#C/C(=N\Nc1ccccc1)C(=N)N1CCCCCC1
EC50 (H4): > 120 µM (not active)
EC50 [2]: 0.132 µM (active)

O=c1c(/C=N/c2cc(O)nc(S)n2)coc2c1ccc1ccccc12
EC50 (Streptococcus): 20.3 µM (active)
EC50 [11]: 0.752 µM (active)
IC50 [12]: 4.68 µM (active)

C[C@@H]1CN([C@@H](C)CO)C(=O)c2cc(NC(=O)Nc3ccc4c(c3)OCO4)ccc2O[C@H]1CN(C)C(=O)Nc1cccc2ccccc12
AC50 [1]: 4.89 µM (active)

O=C(NCCc1ccc(F)cc1)c1[nH]nc2ccccc12
EC50 (H4): 24.5 µM (active)
EC50 [2]: 17.8 µM (active)
EC50 [3]: 42 µM (active)

Cc1ccc2c(c1)c1c3n2CCN(C(=O)CN2CCN(C)CC2)C3CCC1 (stereo not drawn)
EC50 [13]: 16.7 µM (active)
EC50 [14]: 16.1 µM (active)

COCC(=O)N1CC2(C1)CN(Cc1cccc(Cl)c1)[C@@H](CO)c1[nH]c3cc(OC)ccc3c12
AC50 [1]: 12.9 µM (active)

COc1ccc(-c2ccc3c(c2)[C@@H]2[C@@H](CCN2C(=O)NC2CCCC2)[C@H](CO)N3C)cc1
AC50 [15]: 2.83 µM (active)
AC50 [16]: 26.5 µM (active)
